Measurements from patent US4614741A, “Depot antiinflammatory agents” (priority 1983, dated 1986).

Tests used:
[1] = test system: carrageenan-induced oedema of the rat paw; test: Inhibition of carrageenan-induced oedema of the rat paw after i.m. depot administration; format: in vivo, rat (male, Bor:WISW (SPF-Cpb))
Protocol: The antioedemic and analgesic effect of the test substances after i.m. administration of an appropriate depot formulation was determined using the carrageenan-induced oedema of the rat paw or using the Randall-Selittotest [Arch. int. Pharmacodyn.
The tests were carried out with male rats [strain: Bor:WISW (SPF-Cpb), weight about 200 g]. The animals receive a single i.m. administration of a depot product, and the antiinflammatory effect was checked on subsequent days by inducing oedema with carrageenan.
The paw volumes were measured by the method of F. Kemper and G. Ameln [Z. ges. exp.
Various doses were administered in a constant volume of 0.03 ml administered per rat (see Table).

[2] = humans; p.o. versus i.m. in aqueous solution; cited from earlier work

With `O=C(O)c1cc(-c2ccc(F)cc2F)ccc1O` [compound 3, 2',4'-Difluoro-4-hydroxy-3-biphenyl-carboxylic acid] the “% inhibition of oedema, 2nd day after inj.” value ([1]; 5 mg/kg, suspension) was 26% and the “% inhibition of oedema, 4th day after inj.” value ([1]; 5 mg/kg, suspension) was 13%.
For `COc1ccc2cc([C@H](C)C(=O)O)ccc2c1` [compound 10, D-2-(6-Methoxy-2-naphthyl)propionic acid], the “% inhibition of oedema, 2nd day after inj.” value ([1]; 2.5 mg/kg, suspension) was 42.8% and the “% inhibition of oedema, 4th day after inj.” value ([1]; 2.5 mg/kg, suspension) was 22.3%.
For `CC(C)Cc1ccc(C(C)C(=O)O)cc1` (centres unmarked) [compound 11, 2-(p-Isobutylphenyl)-propionic acid], the “% inhibition of oedema, 2nd day after inj.” value ([1]; 13 mg/kg, suspension) was 40% and the “% inhibition of oedema, 4th day after inj.” value ([1]; 13 mg/kg, suspension) was 45%.
In the case of `CC(C(=O)O)c1cccc(C(=O)c2ccccc2)c1` (centres unmarked) [compound 13, 2-(m-Benzoylphenyl)-propionic acid], the “maximum level in the plasma” value [2] is given as “nor do the maximum level in the plasma, or the plasma and renal clearance differ”.
With `COc1ccc2c(c1)c(CC(=O)O)c(C)n2C(=O)c1ccc(Cl)cc1` [compound 18, 1-(p-Chlorobenzoyl)-5-methoxy-2-methylindole-3-acetic acid] the “% inhibition of oedema, 2nd day after inj.” value ([1]; 10.0 mg/kg, solution) was 58.2%, the “% inhibition of oedema, 2nd day after inj.” value ([1]; 10.0 mg/kg, suspension) was 58.2% and the “% inhibition of oedema, 4th day after inj.” value ([1]; 10.0 mg/kg, solution) was 29.5%. For the same compound, the “% inhibition of oedema, 4th day after inj.” value ([1]; 10.0 mg/kg, suspension) was 29.5%.
With `CN1C(C(=O)Nc2nccs2)=C(O)c2ccccc2S1(=O)=O` [compound 21, 4-Hydroxy-2-methyl-N--2-thiazolyl-2H--1,2-benzothiazine-3-carboxamide 1,1-dioxide] the “% inhibition of oedema, 2nd day after inj.” value ([1]; 15 mg/kg, suspension) was 42.9% and the “% inhibition of oedema, 4th day after inj.” value ([1]; 15 mg/kg, suspension) was 30.4%.
In the case of `CN1C(C(=O)Nc2ccccn2)=C(O)c2ccccc2S1(=O)=O` [compound 22, 4-Hydroxy-2-methyl-N--2-pyridinyl-2H--1,2-benzothiazine-3-carboxamide 1,1-dioxide], the “% inhibition of oedema, 2nd day after inj.” value ([1]; 0.6 mg/kg, solution) is reported as 33.2%, the “% inhibition of oedema, 2nd day after inj.” value ([1]; 0.6 mg/kg, suspension) is reported as 33% and the “% inhibition of oedema, 4th day after inj.” value ([1]; 0.6 mg/kg, solution) is reported as 39.3%. The “% inhibition of oedema, 4th day after inj.” value ([1]; 0.6 mg/kg, suspension) was 39%.
